Test results taken from patent US20210251953A1, “COMPOSITIONS FOR TREATING AND/OR […]-A[…]” (U[…] DE OLAVIDE, priority 2018, published 2021).
Read-outs that look alike come from different tables or passages of the source.

Legend:
[1] = tested on: GMC101 strain of C. elegans; experiment: Temperature-dependent paralysis assay in C. elegans Alzheimer's disease model; assay type: in vivo; conditions: for number of paralyzed worms: 1 μg/ml, counted after 18-hour incubation at 25° C.
Protocol: Paralysis assay: Worms were grown at a non-restrictive temperature of 16° C. until they reached the L4-young adult stage. The temperature was then shifted to 25° C. The number of paralyzed and non-paralyzed animals were counted after an 18-hour incubation at the restrictive temperature of 25° C.
Statistical analysis: The data were analyzed using a 2-tailed chi-square test in contingency table. Statistical analysis was performed using the GraphPad Prism software (version 7.00).

[2] = tested on: wild type mice injected with β-amyloid oligomers in the hippocampus; experiment: Step-through passive avoidance test after intrahippocampal β-amyloid oligomers (acute AD mouse model); assay type: in vivo
Protocol: (§1) Mice strains and conditions: The male Swiss (CD1) and APP-PS1 (Blanchard et al., 2003. Exp Neural. 184(1):247-63) mice used in this study were purchased from an authorized provider (University of Seville, Spain) and they were habituated to standard animals housing conditions for 2-3 weeks (a 12 h light/dark cycle, temperature and humidity). Behavioral studies were performed with 8 week-old Swiss mice, and >15 month-old APP-PS1 mice in C57Black background. For histological studies, male APP-PS1 mice from 2 to >15 months of age were used. All experiments were performed in accordance with European Union guidelines (2010/63/EU) and with Spanish regulations for the use of laboratory animals in chronic experiments (RD 53/2013 on the care of experimental animals: BOE Aug. 2, 2013), and the approval of the University Pablo de Olavide animal care committees was obtained prior to performing this study.
Mice local drug infusion: Mice were anesthetized with 4% chloral hydrate ([…] of body weight, i.p.) and when fully anesthetized, they were situated in a stereotactic frame. In order to injure the hippocampus, 0.5 μl of 5 μM solution of β-amyloid oligomers were injected bilaterally into the dorsal hippocampus of the mice at the following stereotactic coordinates: AP=−2.2 mm, ML=±1.5 mm, V=−1.5 mm from the Bregma. The mice were then allowed to recover for at least 15 days. […]

[3] = tested on: C. elegans Parkinson's disease model strain NL5901; experiment: Mobility (pitches per minute) in C. elegans Parkinson's disease model; assay type: in vivo; conditions: STX64 1 μg/ml in DMSO; nematodes overexpressing human α-synuclein in muscle cells, monitored every two days; vs DMSO
Protocol: C. elegans models of Parkinson's disease: We tested if sul-2 mutations or STX64 (Sigma cat. No. 51950) treatment at 1 μg/ml concentration dissolved in DMSO improved the symptoms caused by the overexpression of human α-synuclein in muscle cells (see the following references for information on the model used: van Ham et al., 2008. PLoS Genet. 4(3):e1000027; Gidalevitz et al., 2009. PLoS Genet. 5(3):e1000399; van Ham et al., 2010. Cell. 142(4):601-12). In particular, nematodes were synchronized at 20° C. and monitored every two days. On each day of monitoring, a nematode was placed in a drop of M9 buffer, allowing 30 seconds accommodation and later counting number of pitches in one minute, assuming that a pitch occurs when the head of the nematode crosses the axial axis. N=20 for each day assayed and condition (this protocol was adapted from Van Ham et al., 2010. Cell. 142: 601-612).

[4] = tested on: C. elegans Alzheimer's disease model strain CL2006; experiment: Paralysis in C. elegans Alzheimer's disease model expressing β-amyloid in muscle cells; assay type: in vivo; conditions: nematodes expressing β-amyloid in muscle cells, monitored from 1st day of adulthood
Protocol: C. elegans model of Alzheimer's disease: We also tested an Alzheimer's disease model expressing β-amyloid protein in muscle cells which causes paralysis in the nematode as it ages. Nematodes were synchronized at 20° C. Paralysis was monitored from 1st day of adulthood, by observing whether there is a lack of movement after the nematode was stimulated with a platinum pick.

[5] = tested on: 35 polyglutamine (polyQ) repeats fused to YFP, strain AM140; experiment: Counting of polyQ aggregates in C. elegans Huntington's disease model; assay type: in vivo; conditions: STX64 1 μg/ml in DMSO; counted at day 5 of adulthood
Protocol: (§2) To quantify the aggregates, animals were transferred to pads comprising 2% agarose and immobilized using 25 mM levamisole. The number of polyQ aggregates was determined by counting fluorescent aggregates at 10× magnification, from first bulb pharyngeal to second bulb.

β-amyloid = β-amyloid immunohistochemistry and histological analysis in APP-PS1 mice; assay type: in vivo
Protocol: as §1
(§3) Mice Oral STX administration: STX64 was dissolved in drinking water at 0.005 mg/ml. Mice were exposed to STX solution during 3-4 weeks and the water intake was registered every day during the treatment. The estimated daily dose of STX64 was between 1-2 mg/Kg of body weight.
Immunohistochemistry and histological analysis: For immunohistochemistry, an antibody against β-amyloid (1:3000, Sigma-Aldrich) was used. Antibody staining was visualized with H2O2 and diaminobenzidine, and enhanced with nickel. To minimize variability, at least 5 sections per mice were analyzed under a bright-field DMRB RFY HC microscope (Leica). In each section, the percentage area occupied by β-amyloid, the density and the average size of β-amyloid accumulations were quantified using Image-J software (downloaded as a free software package from the public domain: http://rsb.info.nih.gov/ij/download.html).

R6/1 mice = experiment: Open-field motor activity test in mouse model of Huntington's disease; assay type: in vivo; conditions: oral STX64 0.005 mg/ml in drinking water from 1 month of age for 1 month, tested at 2 months
Protocol: Mice strains and conditions: The R6/1 mice (Yi Li et al., 2005. NeuroRX. 2(3): 447-464; Mangiarini et al., 1996. Cell. 87(3):493-506) used in this study were purchased from an authorized provider and they were habituated to standard animals housing conditions for 2-3 weeks (a 12 h light/dark cycle, temperature and humidity). Motor activity studies were performed with 2-month-old R6/1 mice. All experiments were performed in accordance with European Union guidelines (2010/63/EU) and with Spanish regulations for the use of laboratory animals in chronic experiments (RD 53/2013 on the care of experimental animals: BOE Aug. 2, 2013), and the approval of the University Pablo de Olavide animal care committees was obtained prior to performing this study.
Mice Oral STX administration: STX64 was dissolved in drinking water at 0.005 mg/ml. 1-month-old mice were exposed to STX solution for 1 month and the water intake was registered every day during the treatment. The estimated daily dose of STX64 was between 1-2 mg/Kg of body weight.
Motor activity test: Locomotor activity was tested in a non-stressful open-field (56×40×40 cm) for 15 minutes. The distance traveled by the mice was estimated with Smart video-tracking software (Panlab).

α-synuclein aggregates = experiment: Counting of fluorescent α-synuclein aggregates in C. elegans Parkinson's disease model; assay type: in vivo; conditions: NL5901 nematodes expressing α-synuclein fused to YFP; STX64 vs DMSO
Protocol: as §2, with “Further, we tested the effect of the sul-2 deletion and the administration of STX64 on the aggregation of α-synuclein. To” for “To”, “α-synuclein” for “polyQ”, “40×” for “10×”

APP-PS1 mice = experiment: Step-through passive avoidance test in APP-PS1 mice (chronic AD mouse model); assay type: in vivo; conditions: APP-PS1 mice older than 15 months, oral STX64 during 3-4 weeks; vs vehicle and wild type mice
Protocol: as §1, §3
Step-through passive avoidance (PA) test: Mice have an innate preference for dark and enclosed environments. […]

[6] = tested on: wild type worms and sul-2 deletion mutants; conditions: cited from earlier work

SMILES	number of paralyzed worms [1]	effect on paralysis, comparison of sul-2 absence, STX64 and EMATE ([1]; GMC101 strain)	cognitive deficiencies (escape latency, passive avoidance test) ([2]; local (intrahippocampal) STX64, 0.5 μl of 1 mg/ml, 20 minutes before β-amyloid oligomers)	cognitive deficiencies (escape latency, passive avoidance test) ([2]; systemic (oral) STX64, 0.005 mg/ml in drinking water)	mobility (number of pitches in one minute) [3]	paralysis with age [4]	total number of polyQ aggregates [5]	β-amyloid immunoreactive area (β-amyloid; >15-month-old APP-PS1 mice, 3-4 weeks oral STX64 (0.005 mg/ml in drink water), frontal cortex and hippocampus, vs vehicle)	β-amyloid plaque density (β-amyloid; >15-month-old APP-PS1 mice, 3-4 weeks oral STX64, frontal cortex and hippocampus, vs vehicle)	average β-amyloid plaque size (β-amyloid; >15-month-old APP-PS1 mice, 3-4 weeks oral STX64, frontal cortex, vs vehicle)	average β-amyloid plaque size (β-amyloid; >15-month-old APP-PS1 mice, 3-4 weeks oral STX64, hippocampus, vs vehicle)	β-amyloid deposition compared with the time-course in untreated APP-PS1 mice (β-amyloid; >15 month-old APP-PS1 mice, 3-4 weeks oral STX64, frontal cortex and hippocampus)	motor activity (distance traveled in open-field, 15 minutes) (R6/1 mice)	number of bigger α-synuclein aggregates (≥3 μm) (α-synuclein aggregates)	number of smaller α-synuclein aggregates (<1 μm) (α-synuclein aggregates)	cognitive deficiencies (passive avoidance test) (APP-PS1 mice)	longevity ([6]; sul-2 deletion mutants)	longevity ([6]; wild type worms)
C[C@]12CC[C@@H]3c4ccc(OS(N)(=O)=O)cc4CC[C@H]3[C@@H]1CCC2=O [EMATE, estrone sulfamate]	reduced the number of paralyzed worms	–	–	–	–	–	–	–	–	–	–	–	–	–	–	–	–	–
NS(=O)(=O)Oc1ccc2c3c(c(=O)oc2c1)CCCCC3 [STX64]	reduced the number of paralyzed worms	appeared to have the greatest effect	reverted cognitive deficiencies	reverted cognitive deficiencies	significantly improved mobility	delayed paralysis	reduced the total number of aggregates	significant reduction	significant reduction	significant reduction	a significant reduction, except for plaque size in hippocampus	reduced β-amyloid deposition in APP-PS1 mice older than 15 months to that observed in APP-PS1 mice of 10-12 months of age	decrease in motor activity can be avoided	increasing the number of bigger aggregates	decreased the number of smaller aggregates	completely reverted cognitive deficiencies	did not further increase the longevity	the same longevity effects as in the sul-2 mutants
